Results: patent US9738634B2, “Heterocyclic amide compound and herbicide” (SYNGENTA PARTICIPATIONS AG, priority 2013, dated 2017)

Columns and labels:
Format in all cases: in vivo
Conditions in all cases: soil treatment, treatment dosage 320 g/ha
crabgrass = assay: Test Example 3: weedkilling efficacy through soil treatment; D: crabgrass
How it was run: (§1)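 Crop and weed responses were judged three weeks after a uniform surface spray of the water-diluted emulsion at the given g/ha rate. Seeds sat beneath about 1.5 cm of sterilized diluvial soil, and boxes stood in a greenhouse at 25 to 30° C.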

green foxtail = assay: Test Example 3: weedkilling efficacy through soil treatment; E: green foxtail
How it was run: as §1

barnyard grass = assay: Test Example 3: weedkilling efficacy through soil treatment; F: barnyard grass
Source text: (§2) Weedkilling Efficacy Test Through Soil Treatment
(§3) Sterilized diluvial soil was introduced into 21 cm long, 13 cm wide, 7 cm deep plastic boxes, and seeds of crabgrass, green foxtail, barnyard grass, wild oat, black-grass, Italian ryegrass, common wind-grass, Indian mallow, redroot pigweed, fig-leafed goosefoot, chickweed, catchweed, birds-eye speedwell, corn, soybean, rice, wheat, beet and rapeseed were each spot-sown, and covered with about 1.5 cm of soil. Next, emulsions of compounds of the present invention prepared according to compounding example 2 were diluted with water to give the specified dosages, and applied uniformly onto the soil surface with a small sprayer. The plants were grown by placing the plastic boxes in a greenhouse at 25 to 30° C., and 3 weeks after the pesticide treatment the effect on each type of plant was investigated on the basis of the assessment criteria of test example 1.
(§4) A: barnyard grass, B: bulrush, C: oval-leafed pondweed, D: crabgrass, E: green foxtail, F: barnyard grass, G: wild oat, H: black-grass, I: Italian ryegrass, J: common wind-grass, K: Indian mallow, L: redroot pigweed, M: fig-leafed goosefoot, N: chickweed, O: catchweed, p: birds-eye speedwell, a: transplanted rice, b: directly sown rice, c: corn, d: soybean, e: wheat, f: beet, g: rapeseed
(§5) Further, pesticide dosage (g/ha) indicates the concentration regulated such that treatment was with only the stated number of grams (g), when calculated per hectare (ha).

wild oat = assay: Test Example 3: weedkilling efficacy through soil treatment; G: wild oat
How it was run: as §1

black-grass = assay: Test Example 3: weedkilling efficacy through soil treatment; H: black-grass
How it was run: as §1

Italian ryegrass = assay: Test Example 3: weedkilling efficacy through soil treatment; I: Italian ryegrass
How it was run: as §1

common wind-grass = assay: Test Example 3: weedkilling efficacy through soil treatment; J: common wind-grass
Source text: as §2, §3, §4, §5

Indian mallow = assay: Test Example 3: weedkilling efficacy through soil treatment; K: Indian mallow
How it was run: as §1

redroot pigweed = assay: Test Example 3: weedkilling efficacy through soil treatment; L: redroot pigweed
How it was run: as §1

fig-leafed goosefoot = assay: Test Example 3: weedkilling efficacy through soil treatment; M: fig-leafed goosefoot
How it was run: as §1

chickweed = assay: Test Example 3: weedkilling efficacy through soil treatment; N: chickweed
How it was run: as §1

birds-eye speedwell = assay: Test Example 3: weedkilling efficacy through soil treatment; p: birds-eye speedwell
How it was run: as §1

directly sown rice = assay: Test Example 3: soil treatment, effect on crop; b: directly sown rice
How it was run: as §1

corn = assay: Test Example 3: soil treatment, effect on crop; c: corn
How it was run: as §1

soybean = assay: Test Example 3: soil treatment, effect on crop; d: soybean
How it was run: as §1

wheat = assay: Test Example 3: soil treatment, effect on crop; e: wheat
How it was run: as §1

beet = assay: Test Example 3: soil treatment, effect on crop; f: beet
How it was run: as §1

rapeseed = assay: Test Example 3: soil treatment, effect on crop; g: rapeseed
Source text: as §2, §3, §4, §5

SMILES: CC(C)(C(=O)Nc1cc(Cl)cc(Cl)n1)N1COCN(c2ccccc2)C1=S [A-2-18, N-(4,6-dichloropyridin-2-yl)-2-methyl-2-(5-phenyl-4-thioxo-1,3,5-oxadiazinan-3-yl) propionamide]
- D: crabgrass, weedkilling efficacy grade (crabgrass): 5 (weed kill ratio 90% or more, (practically complete withering))
- E: green foxtail, weedkilling efficacy grade (green foxtail): 5 (weed kill ratio 90% or more, (practically complete withering))
- F: barnyard grass, weedkilling efficacy grade (barnyard grass): 5 (weed kill ratio 90% or more, (practically complete withering))
- G: wild oat, weedkilling efficacy grade (wild oat): 3 (weed kill ratio 40% or more, less than 70%)
- H: black-grass, weedkilling efficacy grade (black-grass): 5 (weed kill ratio 90% or more, (practically complete withering))
- I: Italian ryegrass, weedkilling efficacy grade (Italian ryegrass): 5 (weed kill ratio 90% or more, (practically complete withering))
- J: common wind-grass, weedkilling efficacy grade (common wind-grass): 5 (weed kill ratio 90% or more, (practically complete withering))
- K: Indian mallow, weedkilling efficacy grade (Indian mallow): 2 (weed kill ratio 20% or more, less than 40%)
- L: redroot pigweed, weedkilling efficacy grade (redroot pigweed): 3 (weed kill ratio 40% or more, less than 70%)
- M: fig-leafed goosefoot, weedkilling efficacy grade (fig-leafed goosefoot): 3 (weed kill ratio 40% or more, less than 70%)
- N: chickweed, weedkilling efficacy grade (chickweed): 3 (weed kill ratio 40% or more, less than 70%)
- P: birds-eye speedwell, weedkilling efficacy grade (birds-eye speedwell): 5 (weed kill ratio 90% or more, (practically complete withering))
- b: directly sown rice, effect on crop grade (directly sown rice): 5 (weed kill ratio 90% or more, (practically complete withering))
- c: corn, effect on crop grade (corn): 1 (weed kill ratio 5% or more, less than 20%)
- d: soybean, effect on crop grade (soybean): 0 (weed kill ratio 5% or less (practically no effect))
- e: wheat, effect on crop grade (wheat): 0 (weed kill ratio 5% or less (practically no effect))
- f: beet, effect on crop grade (beet): 3 (weed kill ratio 40% or more, less than 70%)
- g: rapeseed, effect on crop grade (rapeseed): 3 (weed kill ratio 40% or more, less than 70%)
